Measured values reported in patent US7514419B2, “Phosphorus-containing thyromimetics” (Metabasis Therapeutics, Inc., priority 2003, dated 2009).
Values belong to the compound of their own block, whether it stands above or below them.

Key:
[1] = tested on: Hypercholesterolemic rats; test: Cholesterol lowering in hypercholesterolemic rats; format: in vivo, rat; conditions: for change in vivo at 0.5 mg/kg/day / change in vivo at 0.2 mg/kg/day: Rattus norvegicus, percentage change from pre-dose cholesterol; for change in vivo at 0.5 mg/kg/day: delivered p.o. (0.5 mg/kg/d); for cholesterol lowering: 0.5 mg/kg/d orally
[2] = target: T1, human thyroid hormone receptors TRα1 (Homo sapiens, UniProt P10827); test: Receptor binding: labeled T3 binding/displacement, gel filtration and scintillation proximity assay (SPA); conditions: read-out: Ki TRα
T1 sequence (P10827 1-410 isoform P10827-2): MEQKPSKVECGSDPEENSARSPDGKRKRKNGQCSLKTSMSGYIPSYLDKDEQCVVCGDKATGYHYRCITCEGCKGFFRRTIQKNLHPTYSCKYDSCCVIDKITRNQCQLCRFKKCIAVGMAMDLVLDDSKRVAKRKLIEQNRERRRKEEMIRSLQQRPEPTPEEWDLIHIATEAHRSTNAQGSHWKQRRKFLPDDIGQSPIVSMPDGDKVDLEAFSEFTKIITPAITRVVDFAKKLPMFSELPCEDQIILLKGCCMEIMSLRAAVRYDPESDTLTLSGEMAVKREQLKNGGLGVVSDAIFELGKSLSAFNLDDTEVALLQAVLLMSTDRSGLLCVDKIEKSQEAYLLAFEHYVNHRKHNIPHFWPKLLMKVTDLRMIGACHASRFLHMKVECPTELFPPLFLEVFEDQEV
T1 sequence (P19793 1-462 partner): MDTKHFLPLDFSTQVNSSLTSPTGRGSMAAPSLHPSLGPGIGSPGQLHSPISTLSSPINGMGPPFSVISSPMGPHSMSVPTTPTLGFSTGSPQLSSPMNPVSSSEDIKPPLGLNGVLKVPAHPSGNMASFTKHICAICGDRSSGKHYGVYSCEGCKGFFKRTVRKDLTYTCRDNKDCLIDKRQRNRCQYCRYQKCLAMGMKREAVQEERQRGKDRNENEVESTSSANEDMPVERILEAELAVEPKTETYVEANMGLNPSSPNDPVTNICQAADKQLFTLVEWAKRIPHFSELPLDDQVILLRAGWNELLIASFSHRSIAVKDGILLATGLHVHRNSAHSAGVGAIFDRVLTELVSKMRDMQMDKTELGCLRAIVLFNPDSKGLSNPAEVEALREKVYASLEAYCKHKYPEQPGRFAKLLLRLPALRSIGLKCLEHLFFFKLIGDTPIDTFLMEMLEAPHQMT

[3] = target: T2, human thyroid hormone receptors TRβ1 (Homo sapiens, UniProt P10828); test: as above; conditions: read-out: Ki TRβ
T2 sequence (P10828 1-461): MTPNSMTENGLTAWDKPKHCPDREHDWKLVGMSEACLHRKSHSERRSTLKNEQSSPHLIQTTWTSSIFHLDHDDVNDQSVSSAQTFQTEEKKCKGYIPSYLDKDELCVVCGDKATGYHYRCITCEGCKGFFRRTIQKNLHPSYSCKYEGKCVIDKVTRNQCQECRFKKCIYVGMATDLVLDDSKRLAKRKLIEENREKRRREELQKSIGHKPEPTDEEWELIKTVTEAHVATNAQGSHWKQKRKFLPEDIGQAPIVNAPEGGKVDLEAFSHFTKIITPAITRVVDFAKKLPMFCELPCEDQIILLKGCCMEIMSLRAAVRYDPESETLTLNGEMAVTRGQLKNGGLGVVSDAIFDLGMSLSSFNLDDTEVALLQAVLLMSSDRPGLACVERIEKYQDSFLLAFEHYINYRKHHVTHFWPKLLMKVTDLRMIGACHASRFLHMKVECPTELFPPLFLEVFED
T2 sequence (P19793 1-462 partner): T1 sequence (P19793 1-462 partner)

[4] = tested on: normal rats maintained on a cholesterol-containing diet; test: Continuous infusion study in rats on a cholesterol-containing diet; conditions: continuous infusion 1 mg/kg/day; for cardiovascular parameters (heart rate, LV dP/dt, blood pressure): day 7 or day 14
Experimental: Screening for thyromimetic activity was performed in normal rats maintained on a cholesterol-containing diet.

cholesterol-fed rat = test: Subacute study in cholesterol-fed rats, IP once-a-day for seven days: serum cholesterol, heart weight, heart mGPDH; conditions: cholesterol-fed rats, IP 7 days; Compound 17 at 0.1-1 mg/kg/day
Experimental: The cholesterol-fed rat is an animal model of hypercholesterolemia generated by feeding the animals a diet with high cholesterol content.
Methods: Rats were maintained on a diet containing 1.5% cholesterol and 0.5% cholic acid for 2 weeks prior to initiation of treatment. Serum cholesterol values were assessed and the animals randomized into groups for treatment.

ZDF rats = conditions: rat, in vivo, 28 days
Experimental: Compound 18 was administered at doses up to 5 mg/kg/d. Compound cis-13-1 was administered at doses up to 50 mg/kg/d. We reasoned that the ZDF rat, as a metabolically challenged animal model, would be more sensitive to the potential adverse cardiac effects of thyromimetics than a normal, cholesterol-fed rat. At sacrifice, heart rate, and the first derivative of left ventricular pressure (LV dP/dt) were measured with a Millar catheter inserted into the left ventricle.

Sprague Dawley (SD) rat = test: Cardiovascular activity in the Sprague Dawley rat, 7 days oral; format: in vivo; conditions: SD rats, Compound 18 1 mg/kg, Compound cis-13-1 1-50 mg/kg/day
Description: Method: […] The control group (n=6) was given vehicle only. […] On the 7th day after the start of dosing, animals were anesthetized with Isofluorane and the left ventricle cannulated with a high fidelity catheter tip transducer via the right carotid artery. Left ventricular pressure, its first derivative (LVdP/dt), lead I ECG, and heart rate (HR) triggered off the ECG waveform, were digitally recorded. LV dP/dt is a well accepted measure of ionotropic state. Systolic and diastolic aortic pressures were measured by retracting the catheter into the proximal aorta.

SMILES: CC(C)c1cc(Oc2c(I)cc(OCP(=O)(OCOC(=O)C(C)(C)C)OCOC(=O)C(C)(C)C)cc2I)ccc1O [Compound 12-7, Di(pivaloyloxymethyl)[3,5-diiodo-4-(4′-hydroxy-3′-iso-propylphenoxy)phenoxy]methylphosphonate]
change in vivo at 0.5 mg/kg/day ([1]; po): -39.1%

Ki [2]: > 2000 nM
Ki [3]: > 2000 nM
SMILES: Cc1cc(C(=O)CP(=O)(O)O)cc(C)c1Cc1ccc(F)c(C(C)C)c1 [Compound 41-2]

SMILES: Cc1cc(OCC(=O)O)cc(C)c1Cc1ccc(O)c(C(C)C)c1 [Compound 17, [3,5-dimethyl-4-(4′-hydroxy-3′-iso-propylbenzyl)-phenoxy]acetic acid, reference compound]
total cholesterol at day 7 [4]: significant decrease in cholesterol
total cholesterol at day 14 [4]: no significant decrease in cholesterol was observed
cardiac hypertrophy (cholesterol-fed rat): Undesirable cardiac hypertrophy was observed

Ki [2]: > 2000 nM
Ki [3]: > 2000 nM
SMILES: Cc1cc(CCP(=O)(O)O)cc(C)c1Oc1ccc(F)c(C(C)C)c1 [Compound 42-2]

SMILES: Cc1cc(OCP(C)(=O)O)cc(C)c1Cc1ccc(O)c(C(C)C)c1 [Compound 70, [3,5-dimethyl-4-(4′-hydroxy-3′-iso-propylbenzyl)-phenoxymethyl]methylphosphinic acid]
total cholesterol at day 7 [4]: cholesterol lowering effects
total cholesterol at day 14 [4]: cholesterol lowering effects
cardiovascular parameters (heart rate, LV dP/dt, blood pressure) [4]: no changes in any of the cardiovascular parameters

SMILES: CC(C)c1cc(Cc2c(Cl)cc(OC[P@@]3(=O)OCC[C@@H](c4cccc(Cl)c4)O3)cc2Cl)ccc1O [Compound 13-11, Cis (S)-2-[(3,5-dichloro-4-(4′-hydroxy-3′-iso-propylbenzyl)phenoxy)methyl]-4-(3-chlorophenyl)-2-oxo-2λ^5-[1,3,2]-dioxaphosphonane]
change in vivo at 0.5 mg/kg/day ([1]; po): -24.8%

TI Improvement, ED15 HR (ZDF rats; ZDF): >39
TI Improvement, ED25 LV dP/dt (ZDF rats; ZDF): >102
calculated TI in a non-metabolically challenged animal with respect to LV dP/dt (ZDF rats): > 10,000
SMILES: Cc1cc(OC[P@@]2(=O)OCC[C@@H](c3cccc(Cl)c3)O2)cc(C)c1Cc1ccc(O)c(C(C)C)c1 [Compound 13-1-cis, Cis (S)-2-[(3,5-Dimethyl-4-(4′-hydroxy-3′-iso-propylbenzyl)phenoxy)methyl]-4-(3-Chlorophenyl)-2-oxo-2λ^5-[1,3,2]-dioxaphosphinane]
calculated TI in a non-metabolically challenged animal with respect to heart rate (ZDF rats): > 3900
cholesterol lowering [1]: significant lowering of cholesterol
HR, LV dP/dt and aortic pressure compared to vehicle (Sprague Dawley (SD) rat): not significantly different compared to vehicle treated animals
heart weight and heart weight normalized to body weight (Sprague Dawley (SD) rat): no significant changes

SMILES: CC(C)c1cc(Oc2c(Br)cc(CP(=O)(OCOC(=O)C(C)(C)C)OCOC(=O)C(C)(C)C)cc2Br)ccc1O [Compound 12-5, Di-(pivaloyloxymethyl)[3,5-dibromo-4-(4′-hydroxy-3′-iso-propylphenoxy)benzyl] phosphonate]
cholesterol lowering [1]: significant lowering of cholesterol

SMILES: CCOC(=O)[C@H](C)NP(=O)(Cc1cc(Br)c(Oc2ccc(O)c(C(C)C)c2)c(Br)c1)N[C@@H](C)C(=O)OCC [Compound 15-5, di-N-(L-1-ethoxycarbonylethylamino)[3,5-dibromo-4-(4′-hydroxy-3′-iso-propylphenoxy)benzyl]phosphonamide]
cholesterol lowering [1]: significant lowering of cholesterol

SMILES: CCOP(=O)(O)COc1cc(C)c(Cc2ccc(O)c(C(C)C)c2)c(C)c1 [Compound 69-1, [3,5-dimethyl-4-(4′-hydroxy-3′-iso-propylbenzyl)phenoxy]methylphosphonic acid monoethyl ester]
total cholesterol at day 7 [4]: cholesterol lowering effects
total cholesterol at day 14 [4]: cholesterol lowering effects
cardiovascular parameters (heart rate, LV dP/dt, blood pressure) [4]: no changes in any of the cardiovascular parameters

SMILES: COP(=O)(O)COc1cc(C)c(Cc2ccc(O)c(C(C)C)c2)c(C)c1 [Compound 69, [3,5-dimethyl-4-(4′-hydroxy-3′-iso-propylbenzyl)phenoxy]-methylphosphonic acid monomethyl ester]
total cholesterol at day 7 [4]: cholesterol lowering effects
total cholesterol at day 14 [4]: cholesterol lowering effects
cardiovascular parameters (heart rate, LV dP/dt, blood pressure) [4]: no changes in any of the cardiovascular parameters

SMILES: CC(C)c1cc(Cc2c(Cl)cc(OCP(=O)(O)O)cc2Cl)ccc1O [Compound 7-5, [3,5-dichloro-4-(4′-hydroxy-3′-iso-propylbenzyl)phenoxy] methylphosphonic acid]
change in vivo at 0.2 mg/kg/day ([1]; ip, delivered i.p (0.2 mg/kg/d)): -63.3%
change in vivo at 0.2 mg/kg/day ([1]; po, delivered p.o. (0.2 mg/kg/d)): -38%

SMILES: CCOC(=O)[C@H](C)NP(=O)(COc1cc(Cl)c(Cc2ccc(O)c(C(C)C)c2)c(Cl)c1)N[C@@H](C)C(=O)OCC [Compound 15-7]
change in vivo at 0.5 mg/kg/day ([1]; po): -29.1%
